Here are results for 1 compound from article PMC11864979, “First-in-class ultralong-target-residence-time p38α inhibitors as a mitosis-targeted therapy for colorectal cancer” (Nature Cancer, 2025).

Read-outs that look alike come from different tables or passages of the source.

What all share (assay): selectivity profiling in a panel of 340 wild-type kinases (Reaction Biology Europe)
Common to all, as to assay type: binding

Assay [1] deals with T1, 340 wild-type kinases (Homo sapiens, UniProt P05771).
T1 construct: purchased Reaction Biology Europe

For assay [2], the target named is T2, 340 wild-type kinases (Homo sapiens, UniProt P36896).
T2 construct: purchased Reaction Biology Europe
T2 sequence (P36896 24-505): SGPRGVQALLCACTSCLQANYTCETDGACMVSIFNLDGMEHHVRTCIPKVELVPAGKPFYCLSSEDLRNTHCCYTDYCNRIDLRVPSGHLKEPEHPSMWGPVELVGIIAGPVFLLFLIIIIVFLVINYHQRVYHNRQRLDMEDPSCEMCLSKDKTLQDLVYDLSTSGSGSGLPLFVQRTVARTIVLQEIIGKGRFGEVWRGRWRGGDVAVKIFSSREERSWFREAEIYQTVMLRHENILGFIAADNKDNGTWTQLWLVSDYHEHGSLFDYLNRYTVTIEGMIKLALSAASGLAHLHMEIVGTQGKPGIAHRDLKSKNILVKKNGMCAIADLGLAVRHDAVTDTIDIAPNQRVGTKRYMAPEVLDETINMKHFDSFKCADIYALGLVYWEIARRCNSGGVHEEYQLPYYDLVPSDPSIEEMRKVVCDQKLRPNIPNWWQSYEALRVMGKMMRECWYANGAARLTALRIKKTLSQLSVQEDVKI

The target in assay [3] is T3, 340 wild-type kinases (Homo sapiens, UniProt P52333).
T3 construct: purchased Reaction Biology Europe
T3 sequence (P52333 1-1124): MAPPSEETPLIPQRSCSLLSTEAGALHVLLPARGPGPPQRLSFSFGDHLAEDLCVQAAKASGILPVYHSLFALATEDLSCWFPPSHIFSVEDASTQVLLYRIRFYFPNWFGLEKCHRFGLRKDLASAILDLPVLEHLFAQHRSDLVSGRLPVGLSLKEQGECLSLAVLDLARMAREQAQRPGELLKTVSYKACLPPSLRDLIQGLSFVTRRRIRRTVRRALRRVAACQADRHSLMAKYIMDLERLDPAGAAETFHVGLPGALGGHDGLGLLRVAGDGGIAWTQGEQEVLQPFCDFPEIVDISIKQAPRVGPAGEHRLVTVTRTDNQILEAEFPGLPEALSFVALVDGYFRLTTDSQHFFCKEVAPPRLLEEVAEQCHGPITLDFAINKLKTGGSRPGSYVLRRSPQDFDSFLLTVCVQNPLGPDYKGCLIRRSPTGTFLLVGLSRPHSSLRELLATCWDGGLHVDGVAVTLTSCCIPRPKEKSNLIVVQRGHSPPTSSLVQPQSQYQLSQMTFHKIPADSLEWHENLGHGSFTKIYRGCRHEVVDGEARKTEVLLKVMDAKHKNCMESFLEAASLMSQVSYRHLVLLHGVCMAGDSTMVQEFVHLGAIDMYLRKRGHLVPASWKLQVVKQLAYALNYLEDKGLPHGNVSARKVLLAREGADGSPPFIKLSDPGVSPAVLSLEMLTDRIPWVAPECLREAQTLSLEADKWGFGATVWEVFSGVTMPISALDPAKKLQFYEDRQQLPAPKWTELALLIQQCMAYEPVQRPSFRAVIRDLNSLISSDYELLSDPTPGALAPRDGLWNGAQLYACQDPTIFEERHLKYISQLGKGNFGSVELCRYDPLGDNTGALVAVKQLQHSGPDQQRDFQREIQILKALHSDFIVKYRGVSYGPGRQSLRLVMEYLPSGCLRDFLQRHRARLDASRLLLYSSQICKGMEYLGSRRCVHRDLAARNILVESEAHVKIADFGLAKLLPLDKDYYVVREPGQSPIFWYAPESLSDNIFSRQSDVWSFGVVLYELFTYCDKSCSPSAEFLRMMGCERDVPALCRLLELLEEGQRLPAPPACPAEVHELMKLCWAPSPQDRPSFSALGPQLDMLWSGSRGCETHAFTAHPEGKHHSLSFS

Assay [4] has as its target T4, 340 wild-type kinases (Homo sapiens, UniProt Q9UF33).
T4 construct: purchased Reaction Biology Europe
T4 sequence (Q9UF33 23-1036): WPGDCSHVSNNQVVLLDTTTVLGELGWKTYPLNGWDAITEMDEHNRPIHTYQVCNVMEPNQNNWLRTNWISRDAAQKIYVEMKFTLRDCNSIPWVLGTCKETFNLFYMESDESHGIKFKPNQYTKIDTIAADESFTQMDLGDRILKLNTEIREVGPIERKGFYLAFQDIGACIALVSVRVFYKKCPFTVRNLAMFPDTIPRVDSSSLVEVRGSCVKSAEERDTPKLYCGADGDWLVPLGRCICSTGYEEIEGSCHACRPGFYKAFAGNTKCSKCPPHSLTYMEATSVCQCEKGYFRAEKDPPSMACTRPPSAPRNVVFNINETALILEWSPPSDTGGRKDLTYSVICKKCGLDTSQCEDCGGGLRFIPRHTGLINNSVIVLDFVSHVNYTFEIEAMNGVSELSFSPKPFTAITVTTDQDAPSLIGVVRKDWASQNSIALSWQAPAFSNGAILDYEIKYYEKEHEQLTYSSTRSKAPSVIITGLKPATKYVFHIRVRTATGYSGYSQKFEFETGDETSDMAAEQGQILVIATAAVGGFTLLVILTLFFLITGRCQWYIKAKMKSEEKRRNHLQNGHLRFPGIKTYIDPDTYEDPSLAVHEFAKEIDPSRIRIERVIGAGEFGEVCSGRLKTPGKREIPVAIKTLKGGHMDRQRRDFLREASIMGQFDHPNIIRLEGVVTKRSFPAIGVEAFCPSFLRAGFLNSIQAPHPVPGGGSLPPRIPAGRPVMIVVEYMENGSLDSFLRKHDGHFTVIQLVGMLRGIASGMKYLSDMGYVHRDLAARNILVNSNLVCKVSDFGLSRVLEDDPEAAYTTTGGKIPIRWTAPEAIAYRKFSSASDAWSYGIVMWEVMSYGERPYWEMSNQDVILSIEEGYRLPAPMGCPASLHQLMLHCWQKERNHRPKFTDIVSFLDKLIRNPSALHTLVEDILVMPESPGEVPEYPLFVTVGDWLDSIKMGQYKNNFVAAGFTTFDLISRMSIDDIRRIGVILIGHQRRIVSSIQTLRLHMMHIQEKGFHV

In the case of `CNC(=O)c1ccc2c(c1)C(=O)c1ccc(Nc3ccc(F)c(NC(=O)C4CC4)c3)cc1CC2` [Compound 2015], the remaining activity at 0.2 µM in assay [1] (0.2 µM 2015, read-out: PKCbeta1 residual activity) worked out at 109%; in assay [1] (PKCbeta1, 0.2 µM, read-out: residual activity), 109%; in assay [1] (PKCbeta2, 0.2 µM, read-out: residual activity) it was 103%; in assay [2] (0.2 µM 2015, read-out: ACVR1B residual activity) it was 101%; in assay [2] (ACVR1B, 0.2 µM, read-out: residual activity), 101%; in assay [3] (0.2 µM 2015, read-out: JAK3 residual activity), 105%. The remaining activity at 0.2 µM is 105% in assay [3] (JAK3, 0.2 µM, read-out: residual activity); 87.2% in assay [4] (0.2 µM 2015, read-out: EPHA6 residual activity); 87.2% in assay [4] (EPHA6, 0.2 µM, read-out: residual activity). Also, the remaining activity at 1 µM in assay [1] (1 µM 2015, read-out: PKCbeta1 residual activity) is 100%; in assay [1] (PKCbeta1, 1 µM, read-out: residual activity) it was 100%; in assay [1] (PKCbeta2, 1 µM, read-out: residual activity), 109%; in assay [2] (ACVR1B, 1 µM, read-out: residual activity), 86.1%; in assay [3] (1 µM 2015, read-out: JAK3 residual activity), 110%; in assay [3] (JAK3, 1 µM, read-out: residual activity), 110%. Also, the remaining activity at 1 µM in assay [4] (1 µM 2015, read-out: EPHA6 residual activity) is 85.9%; in assay [4] (EPHA6, 1 µM, read-out: residual activity) it was 85.9%.
